# In patent publication US9730929B2, “Substituted aminoimidazopyridazines” (BAYER INTELLECTUAL PROPERTY GMBH, priority 2011, dated 2017):
# Legend:
# [1] = biological target: T1, human full-length MKNK1 (Homo sapiens (Human), UniProt Q9BUB5, T344D); experiment: MKNK1 kinase high ATP assay (TR-FRET, 2 mM ATP); type: biochemical; conditions: ATP final conc. 2 mM; 15 min preincubation
# Procedure: MKNK1-inhibitory activity at high ATP of compounds of the present invention after their preincubation with MKNK1 was quantified employing the TR-FRET-based MKNK1 high ATP assay as described in the following paragraphs.
# As substrate for the kinase reaction the biotinylated peptide biotin-Ahx-[…] (C-terminus in amide form) was used, which can be purchased e.g. from the company Biosyntan (Berlin-Buch, Germany).
# (§1) For the assay 50 nL of a 100 fold concentrated solution of the test compound in DMSO was pipetted into a black low volume 384 well microtiter plate (Greiner Bio-One, Frickenhausen, Germany), 2 μL of a solution of MKNK1 in aqueous assay buffer [50 mM HEPES pH 7.5, 5 mM magnesium chloride, 1.0 mM dithiothreitol, 0.005% (v/v) Nonidet-P40 (Sigma)] was added and the mixture was incubated for 15 min at 22° C. to allow pre-binding of the test compounds to the enzyme before the start of the kinase reaction. Then the kinase reaction was started by the addition of 3 μL of a solution of adenosine-tri-phosphate (ATP, 3.3 mM=>final conc. in the 5 μL assay volume is 2 mM) and substrate (0.1 μM=>final conc. in the 5 μL assay volume is 0.06 μM) in assay buffer and the resulting mixture was incubated for a reaction time of 30 min at 22° C. The concentration of MKNK1 was adjusted depending of the activity of the enzyme lot and was chosen appropriate to have the assay in the linear range, typical concentrations were in the range of 0.003 μg/mL. The reaction was stopped by the addition of 5 μL of a solution of TR-FRET detection reagents (5 nM streptavidine-XL665 [Cisbio Bioassays, Codolet, France] and 1 nM anti-ribosomal protein S6 (pSer236)-antibody from Invitrogen [#44921G] and 1 nM LANCE EU-W1024 labeled ProteinG [Perkin-Elmer, product no. 4D0071]) in an aqueous EDTA-solution (100 mM EDTA, 0.1% (w/v) bovine serum albumin in 50 mM HEPES pH 7.5).
# The resulting mixture was incubated for 1 h at 22° C. to allow the formation of complex between the phosphorylated biotinylated peptide and the detection reagents. Subsequently the amount of phosphorylated substrate was evaluated by measurement of the resonance energy transfer from the Eu-chelate to the streptavidine-XL.
# [2] = biological target: T1, human full-length MKNK1; experiment: MKNK1 kinase assay (TR-FRET, 10 μM ATP); type: biochemical; conditions: ATP final conc. 10 μM; 15 min preincubation
# Procedure: MKNK1-inhibitory activity of compounds of the present invention was quantified employing the MKNK1 TR-FRET assay as described in the following paragraphs.
# As substrate for the kinase reaction the biotinylated peptide biotin-Ahx-[…] (C-terminus in amide form) was used which can be purchased e.g. form the company Biosyntan (Berlin-Buch, Germany).
# as §1, with “16.7 μM=>final” for “3.3 mM=>final”, “10 μM)” for “2 mM)”, “45” for “30”, “0.05 μg/ml.” for “0.003 μg/mL.”, “[…]” for “S6”, “AD0071])” for “4D0071])”
# The resulting mixture was incubated for 1 h at 22° C. to allow the formation of complex between the phosphorylated biotinylated peptide and the detection reagents. Subsequently the amount of phosphorylated substrate was evaluated by measurement of the resonance energy transfer from the Eu-chelate to the streptavidine-XL. Therefore, the fluorescence emissions at 620 nm and 665 nm after excitation at 350 nm were measured in a TR-FRET reader, e.g. a Rubystar (BMG Labtechnologies, Offenburg, Germany) or a Viewlux (Perkin-Elmer). The ratio of the emissions at 665 nm and at 622 nm was taken as the measure for the amount of phosphorylated substrate.
# T1 sequence (Q9BUB5 other isoform, or with tags, fused parts or gaps T344D): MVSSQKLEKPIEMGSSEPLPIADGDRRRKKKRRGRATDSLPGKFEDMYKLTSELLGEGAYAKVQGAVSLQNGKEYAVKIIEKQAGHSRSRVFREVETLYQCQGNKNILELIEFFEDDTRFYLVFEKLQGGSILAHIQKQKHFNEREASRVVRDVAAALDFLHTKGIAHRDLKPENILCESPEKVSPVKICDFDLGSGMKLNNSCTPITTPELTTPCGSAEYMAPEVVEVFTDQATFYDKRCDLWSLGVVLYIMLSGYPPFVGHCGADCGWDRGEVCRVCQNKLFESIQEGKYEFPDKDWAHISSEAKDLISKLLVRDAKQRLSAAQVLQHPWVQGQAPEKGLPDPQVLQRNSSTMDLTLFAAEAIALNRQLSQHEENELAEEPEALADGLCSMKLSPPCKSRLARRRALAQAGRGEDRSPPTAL
SMILES,IC50 [1] [nM],IC50 [2] [nM]
"CN(CC(O)c1ccccc1)c1ccc2ncc(-c3cc4ccccc4o3)n2n1 (single isomer, unassigned; (+)) [Example 13, (+)-2-{[3-(1-Benzofuran-2-yl)imidazo[1,2-b]pyridazin-6-yl](methyl)amino}-1-phenylethanol]",24,–
"CN(CC(O)c1ccccc1)c1ccc2ncc(-c3cc4ccccc4o3)n2n1 (single isomer, unassigned; (-)) [Example 12, (−)-2-{[3-(1-Benzofuran-2-yl)imidazo[1,2-b]pyridazin-6-yl](methyl)amino}-1-phenylethanol]",4,–
CCN(CCO)c1ccc2ncc(-c3cc4ccccc4o3)n2n1 [Example 1],20,7
CN(C[C@H](O)c1cccc(O)c1)c1ccc2ncc(-c3cc4ccccc4o3)n2n1 [Example 3],–,1
"COc1cccc2oc(-c3cnc4ccc(N(C)C[C@H](O)c5cccc(O)c5)nn34)cc12 [Example 9, 3-[(1R)-1-Hydroxy-2-{[3-(4-methoxy-1-benzofuran-2-yl)imidazo[1,2-b]pyridazin-6-yl](methyl)amino}eth-yl]phenol]",4,2
"CN(CC(O)c1ccccc1)c1ccc2ncc(-c3cc4ccccc4o3)n2n1 (stereo not shown) [Example 10, 2-{[3-(1-Benzofuran-2-yl)imidazo[1,2-b]pyridazin-6-yl](methyl)amino}-1-phenylethanol]",4,3
"CN(CC(O)c1cccnc1)c1ccc2ncc(-c3cc4ccccc4o3)n2n1 (stereo not shown) [Example 11, 2-{[3-(1-Benzofuran-2-yl)imidazo[1,2-b]pyridazin-6-yl](methyl)amino}-1-(pyridin-3-yl)ethanol]",2,–
"CC(O)CN(C)c1ccc2ncc(-c3cc4ccccc4o3)n2n1 (stereo not shown) [Example 14, 1-{[3-(1-Benzofuran-2-yl)imidazo[1,2-b]pyridazin-6-yl](methyl)amino}propan-2-ol]",9,–
"COc1nccc2oc(-c3cnc4ccc(N(C)CC(C)O)nn34)cc12 (stereo not shown) [Example 15, 1-{[3-(4-Methoxyfuro[3,2-c]pyridin-2-yl)imidazo[1,2-b]pyridazin-6-yl](methyl)amino}propan-2-ol]",10,–
"OC(CN(c1ccc2ncc(-c3cc4ccccc4o3)n2n1)C1CC1)c1ccccc1 (stereo not shown) [Example 16, 2-{[3-(1-Benzofuran-2-yl)imidazo[1,2-b]pyridazin-6-yl](cyclopropyl)amino}-1-phenylethanol]",24,–
"COc1nccc2oc(-c3cnc4ccc(N(C)C(C)CO)nn34)cc12 (stereo not shown) [Example 17, 2-{[3-(4-Methoxyfuro[3,2-c]pyridin-2-yl)imidazo[1,2-b]pyridazin-6-yl](methyl)amino}propan-1-ol]",26,–
"OC(CN(c1ccc2ncc(-c3cc4ccccc4o3)n2n1)C1CC1)c1ccc(F)cc1 (stereo not shown) [Example 18, 2-{[3-(1-Benzofuran-2-yl)imidazo[1,2-b]pyridazin-6-yl](cyclopropyl)amino}-1-(4-fluorophenyl)ethanol]",42,–
"CC(CO)N(C)c1ccc2ncc(-c3cc4ccccc4o3)n2n1 (stereo not shown) [Example 19, 2-{[3-(1-Benzofuran-2-yl)imidazo[1,2-b]pyridazin-6-yl](methyl)amino}propan-1-ol]",47,–
"CC(C)CN(CC(O)c1ccccc1)c1ccc2ncc(-c3cc4ccccc4o3)n2n1 (stereo not shown) [Example 20, 2-{[3-(1-Benzofuran-2-yl)imidazo[1,2-b]pyridazin-6-yl](isobutyl)amino}-1-phenylethanol]",48,–
"CC(C)N(CC(O)c1ccccc1)c1ccc2ncc(-c3cc4ccccc4o3)n2n1 (stereo not shown) [Example 21, 2-{[3-(1-Benzofuran-2-yl)imidazo[1,2-b]pyridazin-6-yl](isopropyl)amino}-1-phenylethanol]",52,–
"CN(CC(O)c1ccccc1)c1ccc2ncc(-c3cc4ccncc4o3)n2n1 (stereo not shown) [Example 22, 2-{[3-(Furo[2,3-c]pyridin-2-yl)imidazo[1,2-b]pyridazin-6-yl](methyl)amino}-1-phenylethanol]",1,–
"CN(CC(O)c1ccccc1)c1ccc2ncc(-c3cc4cnccc4o3)n2n1 (stereo not shown) [Example 23, 2-{[3-(Furo[3,2-c]pyridin-2-yl)imidazo[1,2-b]pyridazin-6-yl](methyl)amino}-1-phenylethanol]",1,–
"COc1nccc2oc(-c3cnc4ccc(N(C)CC(O)c5ccccc5)nn34)cc12 (stereo not shown) [Example 24, 2-{[3-(4-Methoxyfuro[3,2-c]pyridin-2-yl)imidazo[1,2-b]pyridazin-6-yl](methyl)amino}-1-phenylethanol]",3,–
"CCOc1nccc2oc(-c3cnc4ccc(N(C)CC(O)c5ccccc5)nn34)cc12 (stereo not shown) [Example 25, 2-{[3-(4-Ethoxyfuro[3,2-c]pyridin-2-yl)imidazo[1,2-b]pyridazin-6-yl](methyl)amino}-1-phenylethanol]",5,–
